Experiment [1] concerns the target T1, human cytoplasmic dynein 2 (GFP-dynein 2, amino acids 1091–4307) (Homo sapiens, UniProt Q8NCM8).
T1 construct: (AA 1091–4307, uniprot: Q8NCM8); protein A tag (followed by TEV-cleavable linker) (N, cleaved yes); made in house; host or cells: Sf9 insect cells (baculovirus)
The experiment in a line: Microtubule gliding (motility) assay with GFP-dynein 2. The experiment is classed as biochemical. The settings on record: 0.05 mg/mL casein; for Velocity of dynein-2-driven microtubule gliding: 20 µM compound, solvent control 128 ± 14 nm/s, mean ± S.D.; for Velocity of dynein-2-driven microtubule gliding / IC50: 1 mM MgATP, 2% DMSO; for IC50: read-out: IC50, inhibition of GFP-dynein-2-driven motility. As for the experimental part: We purified an N-terminally GFP-tagged motor-domain construct of dynein 2 using an insect cell expression system ([Schmidt et al., 2015]). The GFP tag in this construct (GFP-dynein 2, amino acids 1091–4307) allowed the motor protein to be immobilized on passivated glass coverslips used in microtubule gliding assays. GFP-dynein 2 was obtained as a mono-disperse peak by gel filtration (Figure 2D and E). In the presence of ATP (1 mM), this protein moved microtubules with a velocity of 128 ± 14 nm/s (mean ± SD, Figure 2G and I).
Reaction setup: A coverslip-based motility assay was adapted from similar assays reported previously ([Firestone et al., 2012]; [Schmidt et al., 2015]). A flow chamber assembled on a pre-cleaned microscope coverslide (3–5 µL chamber volume) was hydrated with buffer A (25 mM PIPES, 30 mM KCl, 5 mM MgCl2, 1 mM EGTA, 0.01% Triton X-100, 1 mM DTT, 20 µM taxol, pH 7.0 with KOH). Anti-GFP antibody (0.4 mg/mL, affinity purified rabbit antibody) was flowed into the chamber and allowed to adhere non-specifically to the glass for 20 s. The surface was blocked using 0.5 mg/mL α-casein in buffer A. Excess protein was then washed away with buffer A. GFP-dynein motor domain was diluted in buffer A supplemented with 1 mM DTT and 0.1 mM ATP (2 mM DTT final; GFP-dynein 2 diluted to: 180 nM; GFP-dynein 1 diluted to: 60 nM), flowed into the chamber and allowed to bind for 20 s. Excess protein was washed away with buffer A. Reaction mix (25 mM PIPES, 90 mM KCl, 6 mM MgCl2, 1 mM EGTA, 0.01% Triton X-100, 3 mM DTT, 20 µM taxol, 1 mM ATP, 1x oxygen scavenging system components [4.5 mg/mL glucose, 35 µg/mL catalase, 200 µg/mL glucose oxidase], 2% final DMSO [v/v] with compounds at appropriate concentrations, 0.05 mg/mL α-casein, microtubules [rhodamine labeled, purified from bovine brain, GMP-CPP and Taxol-stabilized], pH 7.0 with KOH) was flowed into the chamber using ~4 chamber volumes. For experiments shown in Figure 4—figure supplement 1, α-casein concentration in reaction mix was 0.5 mg/mL and all other parameters were held constant.
For reversibility experiments, motility in the presence of 5 µM 8 was observed as above, and upon completion of imaging, the chamber, fresh buffer A supplemented with 1 mM ATP was flowed into the chamber and incubated for 1 min; this wash and incubation cycle was repeated twice. Reaction mix containing DMSO (no compound) was flowed into the chamber using ~4 chamber volumes. The chamber was sealed with valap and returned to the microscope.
Microscopy conditions: Following addition of reaction mix, microtubules were allowed to bind for 5 min before imaging. For reversibility experiments, microtubules were allowed to bind for 10 min before imaging. Videos were taken on a Zeiss Axiovert 200M wide-field microscope equipped with a Zeiss 100x/1.45 NA α-Plan-Fluar objective. Data were captured with an EM-CCD camera (iXon DU-897, Andor Technology) with a 0.2 s exposure time and frame rate of 0.25–0.5/second. Four 10–20 s videos were captured per experimental condition. Velocities were measured using the kymograph tool in FIJI ([Schindelin et al., 2012]). Data analysis is discussed below under ‘General data analysis procedures.’
Microtubule velocity measurements: the tracks of microtubules were traced and converted to kymographs (x axis-displacement, y axis-time) using the kymograph function of FIJI (RRID: SCR_002285). The angle formed between an edge of a microtubule and the horizontal was measured. This angle, θ, was converted into velocity using the following relationship: velocity = 1/|tangent(θ)| * (unit pixel distance)/(time interval between frames).
The calibrated pixel distance was 0.152 µm and the time interval between frames was either 2 or 4 s. The velocities of at least seven microtubules were measured per field of view, if sufficient tracks could be found. In cases where fewer than seven microtubules were found in a field of view, velocities of all microtubules on the coverslip were measured. […]

In experiment [2] the target is T2, His-dynein 1 (Homo sapiens, UniProt Q14204).
T2 construct: (wild-type, K1912A, K2601A, AA 1320–4646, uniprot: Q14204); made in house; host or cells: Sf9 insect cells (baculovirus)
The experiment in a line: Basal ATPase activity of His-dynein 1 (wild-type). The experiment is classed as biochemical. The conditions noted are these: 40 µM compound, 1 mM MgATP, 2% DMSO; control 0.66 ± 0.1 s^−1. Here is the method:
ATPase assays using recombinant Dynein 1 (wild-type and mutants) were performed in a buffer containing 25 mM PIPES pH7.0, 30 mM KCl, 1 mM EGTA, 5 mM MgCl2, 0.01% triton X-100, 1 mM DTT, and 20–30 µM taxol (if microtubules were present). For typical conditions, enzyme was incubated with varying concentrations of inhibitor in buffer containing 2% DMSO for 10 min in a volume of 10 μL. When microtubules were present, they were polymerized by stepwise addition of taxol and high concentrations of DMSO (30% final during polymerization reactions), and re-suspended following centrifugation in ATPase buffer to a concentration up to threefold above the final concentration used in the reaction (bovine brain tubulin, no fluoresecent label). For microtubule-stimulated reactions in dose-response format, reactions were assembled by 1:1:1 mixture of 3x enzyme stock, 3x compound stock (in buffer with 6% DMSO), and 3x microtubule stock to each well. For microtubule-stimulated ATPase assays at tubulin concentrations > 2.5 µM, enzyme stock was supplemented with compound stock in pure DMSO (resulting in an intermediate DMSO concentration of 6%), and then the microtubule stock was added. […]
Assembled reaction mixtures (including enzyme, compound, and microtubules, if present) were incubated for 10 min before addition of ATP. […] The fraction of γ-phosphate hydrolyzed in each condition was quantified using FIJI.

T1 sequence (Q8NCM8 1091-4307): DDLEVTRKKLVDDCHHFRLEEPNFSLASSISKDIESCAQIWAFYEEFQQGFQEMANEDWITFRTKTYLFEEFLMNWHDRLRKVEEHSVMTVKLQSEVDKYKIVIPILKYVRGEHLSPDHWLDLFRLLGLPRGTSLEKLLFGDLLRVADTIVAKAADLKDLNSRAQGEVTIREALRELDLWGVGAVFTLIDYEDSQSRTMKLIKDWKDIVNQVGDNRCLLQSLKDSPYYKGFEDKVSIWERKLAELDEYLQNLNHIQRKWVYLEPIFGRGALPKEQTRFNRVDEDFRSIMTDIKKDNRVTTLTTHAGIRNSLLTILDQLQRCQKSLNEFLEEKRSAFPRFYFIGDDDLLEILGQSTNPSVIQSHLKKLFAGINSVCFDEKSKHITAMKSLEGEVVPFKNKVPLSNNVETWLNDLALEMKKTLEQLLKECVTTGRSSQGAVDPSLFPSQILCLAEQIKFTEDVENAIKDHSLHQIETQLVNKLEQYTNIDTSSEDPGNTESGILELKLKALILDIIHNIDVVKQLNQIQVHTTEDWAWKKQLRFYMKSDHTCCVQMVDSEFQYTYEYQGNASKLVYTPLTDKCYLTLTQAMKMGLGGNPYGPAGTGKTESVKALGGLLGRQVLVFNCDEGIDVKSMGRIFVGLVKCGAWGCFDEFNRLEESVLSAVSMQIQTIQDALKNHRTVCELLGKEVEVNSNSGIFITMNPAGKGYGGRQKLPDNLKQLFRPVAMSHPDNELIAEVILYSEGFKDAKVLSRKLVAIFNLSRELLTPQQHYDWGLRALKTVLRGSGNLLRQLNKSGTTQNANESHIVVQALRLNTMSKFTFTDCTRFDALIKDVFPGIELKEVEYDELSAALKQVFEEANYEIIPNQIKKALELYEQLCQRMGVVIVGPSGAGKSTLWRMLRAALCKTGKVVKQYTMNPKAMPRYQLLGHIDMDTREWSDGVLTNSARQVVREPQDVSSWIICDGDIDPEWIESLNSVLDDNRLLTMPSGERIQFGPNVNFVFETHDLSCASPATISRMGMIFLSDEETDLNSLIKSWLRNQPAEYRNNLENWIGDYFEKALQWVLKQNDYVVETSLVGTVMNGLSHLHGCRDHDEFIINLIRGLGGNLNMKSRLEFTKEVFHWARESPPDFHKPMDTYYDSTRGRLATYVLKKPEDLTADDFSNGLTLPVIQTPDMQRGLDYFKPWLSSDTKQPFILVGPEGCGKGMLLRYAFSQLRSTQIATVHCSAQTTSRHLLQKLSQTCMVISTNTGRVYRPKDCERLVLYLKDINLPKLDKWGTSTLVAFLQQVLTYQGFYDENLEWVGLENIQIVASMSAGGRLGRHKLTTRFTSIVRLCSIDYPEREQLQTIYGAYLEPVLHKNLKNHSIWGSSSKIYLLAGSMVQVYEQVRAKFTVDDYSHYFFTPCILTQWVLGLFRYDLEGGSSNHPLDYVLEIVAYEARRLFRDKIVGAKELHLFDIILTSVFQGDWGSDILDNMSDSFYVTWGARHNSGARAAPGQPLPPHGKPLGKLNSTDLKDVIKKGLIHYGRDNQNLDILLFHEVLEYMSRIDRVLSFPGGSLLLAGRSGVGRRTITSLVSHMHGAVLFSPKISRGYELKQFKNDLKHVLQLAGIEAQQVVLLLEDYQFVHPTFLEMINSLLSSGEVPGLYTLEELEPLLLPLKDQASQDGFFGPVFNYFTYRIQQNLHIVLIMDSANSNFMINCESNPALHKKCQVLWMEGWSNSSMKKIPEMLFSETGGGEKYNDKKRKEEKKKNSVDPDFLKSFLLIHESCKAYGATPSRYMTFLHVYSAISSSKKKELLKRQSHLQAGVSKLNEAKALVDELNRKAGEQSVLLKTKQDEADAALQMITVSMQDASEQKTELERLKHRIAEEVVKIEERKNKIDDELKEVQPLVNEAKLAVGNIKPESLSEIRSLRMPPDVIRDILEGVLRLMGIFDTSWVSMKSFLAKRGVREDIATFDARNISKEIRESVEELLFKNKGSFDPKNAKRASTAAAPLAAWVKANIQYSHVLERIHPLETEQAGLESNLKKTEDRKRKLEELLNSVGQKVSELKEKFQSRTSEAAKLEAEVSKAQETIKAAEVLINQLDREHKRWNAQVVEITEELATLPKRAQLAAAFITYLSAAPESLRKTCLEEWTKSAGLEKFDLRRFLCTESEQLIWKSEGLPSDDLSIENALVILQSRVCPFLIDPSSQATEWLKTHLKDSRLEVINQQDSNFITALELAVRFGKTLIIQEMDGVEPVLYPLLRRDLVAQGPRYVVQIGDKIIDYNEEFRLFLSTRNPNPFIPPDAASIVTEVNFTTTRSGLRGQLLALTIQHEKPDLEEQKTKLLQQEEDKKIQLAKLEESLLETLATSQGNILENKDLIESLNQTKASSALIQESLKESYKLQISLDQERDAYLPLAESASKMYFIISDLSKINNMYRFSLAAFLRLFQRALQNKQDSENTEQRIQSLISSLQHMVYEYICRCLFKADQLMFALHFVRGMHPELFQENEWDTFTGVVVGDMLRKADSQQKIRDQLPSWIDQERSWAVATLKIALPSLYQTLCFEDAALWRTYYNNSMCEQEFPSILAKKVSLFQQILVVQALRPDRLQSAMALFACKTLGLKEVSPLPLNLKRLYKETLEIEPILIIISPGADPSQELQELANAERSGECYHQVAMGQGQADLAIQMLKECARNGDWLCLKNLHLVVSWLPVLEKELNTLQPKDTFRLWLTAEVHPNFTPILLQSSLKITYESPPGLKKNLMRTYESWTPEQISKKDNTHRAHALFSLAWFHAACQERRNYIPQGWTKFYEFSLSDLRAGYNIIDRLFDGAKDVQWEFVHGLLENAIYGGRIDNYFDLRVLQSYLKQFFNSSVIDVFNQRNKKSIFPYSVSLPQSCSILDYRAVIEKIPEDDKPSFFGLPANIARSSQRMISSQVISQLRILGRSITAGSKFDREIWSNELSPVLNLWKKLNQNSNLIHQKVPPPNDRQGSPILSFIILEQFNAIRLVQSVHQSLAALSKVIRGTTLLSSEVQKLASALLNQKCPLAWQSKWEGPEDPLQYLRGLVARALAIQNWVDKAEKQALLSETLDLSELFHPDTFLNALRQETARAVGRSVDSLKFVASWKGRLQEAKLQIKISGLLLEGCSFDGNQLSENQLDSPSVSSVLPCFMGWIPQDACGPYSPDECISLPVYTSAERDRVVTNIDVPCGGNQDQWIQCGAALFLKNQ

Turning to `N#Cc1c(C2(c3ccc(Cl)cc3)CC2)nn2c1[nH]c(=O)c1cc(I)ccc12` [Compound 8, 2-[1-(4-chlorophenyl)cyclopropyl]-7-iodo-5-oxo-4H-pyrazolo[1,5-a]quinazoline-3-carbonitrile], the “Reversibility of inhibition of dynein-2-dependent motility after washout” value in experiment [1] (5 µM 8, then washout, 1 mM ATP) is “reversed following washout”. Further, in experiment [1], the “Velocity of dynein-2-driven microtubule gliding” value was found to be 6 ± 2 nm/s and the IC50 is 2.6 ± 1.3 µM. The molecule also displayed an inhibition at 40 µM in experiment [2] of around 30%.

With `N#C/C(C(=O)c1ccc(Cl)cc1Cl)=C1\NC(=O)c2ccc(Cl)cc2N1` [ciliobrevin D, reference compound], in experiment [1], the “Velocity of dynein-2-driven microtubule gliding” value is 83 ± 10 nm/s and the IC50 is 20 µM. This molecule also had an inhibition at 40 µM in experiment [2] of around 70%.

The record behind these values is PMC5478271, “Chemical structure-guided design of dynapyrazoles, cell-permeable dynein inhibitors with a unique mode of action” (eLife, 2017).
